In patent US9115073B2, “1,3-diphenylpropane derivatives, preparations and uses thereof” (GENFIT, priority 2011, dated 2015):

Tests used:
Assay type in all cases: cell-based
hPPARalpha = target: T1, hPPARalpha (Homo sapiens, UniProt Q07869); test: Gal4-hPPARalpha transactivation assay in COS-7 cells (luciferase); conditions: for Emax: COS-7, maximal relative activation vs reference, read-out: Gal4-hPPARα(LBD) TOP (% ref); for EC50: Gal4-hPPARα(LBD) transactivation; for Gal4-hPPARα(LBD) TOP (% ref): maximal relative activation vs reference
T1 construct: Gal4-hPPARα(LBD); Gal4 (fusion partner); expressed in transfected cells; host or cells: COS-7 (monkey kidney)
T1 sequence (Q07869 239-466 limits assumed): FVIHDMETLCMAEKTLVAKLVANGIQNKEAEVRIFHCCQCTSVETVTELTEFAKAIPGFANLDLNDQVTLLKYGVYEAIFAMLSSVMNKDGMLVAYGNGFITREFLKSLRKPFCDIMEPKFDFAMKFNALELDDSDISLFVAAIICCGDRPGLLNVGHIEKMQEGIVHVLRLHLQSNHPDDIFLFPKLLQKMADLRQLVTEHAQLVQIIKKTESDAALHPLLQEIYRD
Procedure: (§1) Monkey kidney COS-7 cells were maintained in standard culture conditions (Dulbecco's modified Eagle's minimal medium: DMEM) supplemented with 10% fetal calf serum, 1% sodium pyruvate, 1% essential amino acids and 1% antibiotics at 37° C. in a humidified atmosphere of 5% C02 and 95% air. The medium was changed every 2 days. All tested compounds were dissolved in DMSO. Cells were transfected using 2 μl JetPEI™ (Polyplus transfection)/μg of DNA. Briefly, 40 μg of DNA was transfected in a 225 cm^2 culture flask of adherent COS-7 cells (respecting the 1/50 ratio between the Gal4(RE)_TkpGL3 plasmid and the plasmid coding the nuclear receptor of interest (pGal4-hPPARalpha, pGal4-hPPARgamma, pGal4-hPPARdelta, pGal4-mPPARalpha, pGal4-mPPARgamma and pGal4-mPPARdelta) or of the pGal4phi plasmid (negative control). Cells were enzymatically detached and seeded in 384 well plates at the density of 20,000 cells/well and then incubated for 4 hours at 37° C. The activation was automatically performed, by using the Genesis Freedom 200™ (Tecan), in fresh medium supplemented with 2% of synthetic serum, free of lipids (Ultroser™, Biosepra) supplemented with the tested compounds (compound of interest or reference molecules) or vehicle (DMSO 0.1%). The luciferase activity was measured with the Steady-Glo Luciferase Assay System (Promega, Madison, Wis.). All transactivation experiments were performed at least 2 times. Activation curves were realized using SigmaPlot® (version 7.0 from SPSS Inc.) software and took into account all the experimental points. SimgaPlot® was also used to fit the standard curves and then determine the specific EC50 values, maximum effect versus reference molecules and Hill slope. The Emax effect of each new ligand is represented as the ratio of the maximal induction (plateau) obtained with the new ligand and the induction obtained with the corresponding reference compound. The reference compounds for PPARalpha, PPARgamma and PPARdelta were fenofibrate (100 μM), rosiglitazone (10 μM) and GW501516 (1 μM).

hPPARgamma = target: T2, hPPARgamma (Homo sapiens, UniProt P37231); test: Gal4-hPPARgamma transactivation assay in COS-7 cells (luciferase); conditions: for Emax: COS-7, maximal relative activation vs reference, read-out: Gal4-hPPARγ(LBD) TOP (% ref); for EC50: Gal4-hPPARγ(LBD) transactivation; for Gal4-hPPARγ(LBD) TOP (% ref): maximal relative activation vs reference
T2 construct: Gal4-hPPARγ(LBD); Gal4 (fusion partner); expressed in transfected cells; host or cells: COS-7 (monkey kidney)
T2 sequence (P37231 238-503 limits assumed): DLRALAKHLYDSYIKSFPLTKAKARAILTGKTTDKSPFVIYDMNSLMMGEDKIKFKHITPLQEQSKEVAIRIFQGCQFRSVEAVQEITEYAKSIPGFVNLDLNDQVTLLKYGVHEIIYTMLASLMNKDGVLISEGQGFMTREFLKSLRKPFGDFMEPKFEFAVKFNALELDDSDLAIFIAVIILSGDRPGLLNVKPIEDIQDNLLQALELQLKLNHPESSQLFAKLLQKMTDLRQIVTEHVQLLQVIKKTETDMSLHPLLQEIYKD
Procedure: as §1

hPPARdelta = target: T3, hPPARdelta (Homo sapiens, UniProt Q03181); test: Gal4-hPPARdelta transactivation assay in COS-7 cells (luciferase); conditions: for Emax: COS-7, maximal relative activation vs reference, read-out: Gal4-hPPARδ(LBD) TOP (% ref); for EC50: Gal4-hPPARδ(LBD) transactivation; for Gal4-hPPARδ(LBD) TOP (% ref): maximal relative activation vs reference
T3 construct: Gal4-hPPARδ(LBD); Gal4 (fusion partner); expressed in transfected cells; host or cells: COS-7 (monkey kidney)
T3 sequence (Q03181 211-439 limits assumed): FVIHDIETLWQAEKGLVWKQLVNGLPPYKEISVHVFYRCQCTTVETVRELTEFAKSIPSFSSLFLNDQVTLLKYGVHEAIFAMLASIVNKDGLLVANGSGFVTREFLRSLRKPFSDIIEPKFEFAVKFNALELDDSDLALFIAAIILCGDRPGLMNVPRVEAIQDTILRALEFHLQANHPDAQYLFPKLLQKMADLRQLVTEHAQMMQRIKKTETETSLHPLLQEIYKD
Procedure: as §1

Structure (SMILES)	Emax (hPPARalpha) [%]	EC50 (hPPARalpha) [nM]	Emax (hPPARgamma) [%]	EC50 (hPPARgamma) [nM]	Emax (hPPARdelta) [%]	EC50 (hPPARdelta) [nM]	Gal4-hPPARγ(LBD) TOP (% ref) (hPPARgamma; listed as cpd 14-1)	Gal4-hPPARδ(LBD) TOP (% ref) (hPPARdelta; listed as cpd 14-1)	Gal4-hPPARα(LBD) TOP (% ref) (hPPARalpha)	Gal4-hPPARγ(LBD) TOP (% ref) (hPPARgamma)	Gal4-hPPARδ(LBD) TOP (% ref) (hPPARdelta)
CCOC(c1ccc(OC(F)(F)F)cc1)C1CC1c1cc(C)c(OC(C)(C)C(=O)O)c(C)c1 (racemic) [Cpd 10-1, 2-(4-(2-(ethoxy(4-(trifluoromethoxy)phenyl)methyl)cyclopropyl)-2,6-dimethylphenoxy)-2-methylpropanoic acid]	51	38	74	95	90	14					
COC(c1ccc(C)cc1)C1CC1c1cc(C)c(OC(C)(C)C(=O)O)c(C)c1 (racemic) [Cpd 2-1, 2-(4-(2-(methoxy(4-methylphenyl)methyl)cyclopropyl)-2,6-dimethylphenoxy)-2-methylpropanoic acid]	35	635	72	110	85	152					
COC(c1ccc(OC(F)(F)F)cc1)C1CC1c1cc(C)c(OC(C)(C)C(=O)O)c(C)c1 (racemic) [Cpd 14-1, 2-(4-(2-(methoxy(4-(trifluoromethoxy)phenyl)methyl)cyclopropyl)-2,6-dimethylphenoxy)-2-methylpropanoic acid]							66	81			
COC(c1ccc(SC)cc1)C1CC1c1cc(C)c(OC(C)(C)C(=O)O)c(C)c1 (single isomer, unassigned) [Cpd 3-1, 2-(4-(2-(methoxy(4-(methylthio)phenyl)methyl)cyclopropyl)-2,6-dimethylphenoxy)-2-methylpropanoic acid]	57	105	79	35	77	54					
Cc1cc(C2CC2C(OCc2ccccc2)c2ccc(OC(F)(F)F)cc2)cc(C)c1OC(C)(C)C(=O)O (single isomer, unassigned) [Cpd 11-1, 2-(4-(2-(benzyloxy(4-(trifluoromethoxy)phenyl)methyl)cyclopropyl)-2,6-dimethylphenoxy)-2-methylpropanoic acid]	46	21	86	116	75	79					
COC(c1ccc(C(F)(F)F)cc1F)C1CC1c1cc(C)c(OC(C)(C)C(=O)O)c(C)c1 (single isomer, unassigned) [Cpd 12-2, 2-(4-(2-(methoxy(2-fluoro-4-(trifluoromethyl)phenyl)methyl)cyclopropyl)-2,6-dimethylphenoxy)-2-methylpropanoic acid]		90		3		13					
COC(c1ccccc1OC(F)(F)F)C1CC1c1cc(C)c(OC(C)(C)C(=O)O)c(C)c1 (single isomer, unassigned) [Cpd 13-2, 2-(4-(2-(methoxy(2-(trifluoromethyloxy)phenyl)methyl)cyclopropyl)-2,6-dimethylphenoxy)-2-methylpropanoic acid]		623		9		214					
CCCCOC(c1ccc(OC(F)(F)F)cc1)C1CC1c1cc(C)c(OC(C)(C)C(=O)O)c(C)c1 (single isomer, unassigned) [Cpd 5-2, 2-(4-(2-(butyloxy(4-(trifluoromethoxy)phenyl)methyl)cyclopropyl)-2,6-dimethylphenoxy)-2-methylpropanoic acid]		54		21		57					
Cc1cc(C2CC2C(OCCC2CCCCC2)c2ccc(OC(F)(F)F)cc2)cc(C)c1OC(C)(C)C(=O)O (racemic) [Cpd 6-2, 2-(4-(2-(cyclohexylethyloxy(4-(trifluoromethoxy)phenyl)methyl)cyclopropyl)-2,6-dimethylphenoxy)-2-methylpropanoic acid]		26		34		131			38	79	66
CCCCOC(c1ccc(OC(F)(F)F)cc1)C1CC1c1cc(C)c(OC(C)(C)C(=O)O)c(C)c1 (racemic) [Cpd 5-2, 2-(4-(2-(butyloxy(4-(trifluoromethoxy)phenyl)methyl)cyclopropyl)-2,6-dimethylphenoxy)-2-methylpropanoic acid]									47	72	60
CCOC(c1ccc(OC(F)(F)F)cc1)C1CC1c1cc(C)c(OC(C)(C)C(=O)O)c(C)c1 (racemic) [Cpd 10-2, 2-(4-(2-(ethoxy(4-(trifluoromethoxy)phenyl)methyl)cyclopropyl)-2,6-dimethylphenoxy)-2-methylpropanoic acid]		30		39		24			43		73

Other lines, results leading:

Emax (hPPARalpha) [%]	EC50 (hPPARalpha) [nM]	Emax (hPPARgamma) [%]	EC50 (hPPARgamma) [nM]	Emax (hPPARdelta) [%]	EC50 (hPPARdelta) [nM]	Gal4-hPPARγ(LBD) TOP (% ref) (hPPARgamma; listed as cpd 14-1)	Gal4-hPPARδ(LBD) TOP (% ref) (hPPARdelta; listed as cpd 14-1)	Gal4-hPPARα(LBD) TOP (% ref) (hPPARalpha)	Gal4-hPPARγ(LBD) TOP (% ref) (hPPARgamma)	Gal4-hPPARδ(LBD) TOP (% ref) (hPPARdelta)	Structure (SMILES)
49	38	75	12	86	6						COc1cc(OC(F)(F)F)ccc1C(OC)C1CC1c1cc(C)c(OC(C)(C)C(=O)O)c(C)c1 (racemic) [Cpd 17-1, 2-(4-(2-(methoxy(2-methoxy-4-(trifluoromethoxy)phenyl)methyl)cyclopropyl)-2,6-dimethylphenoxy)-2-methylpropanoic acid]
17	3650	48	828	88	3270						COC(c1ccc(OC(F)(F)F)cc1)C1CC1c1ccc(OC(C)(C)C(=O)O)c(C2CC2)c1 (racemic) [Cpd 21-1, 2-(2-cyclopropyl-4-(2-(methoxy(4-(trifluoromethoxy)phenyl)methyl)cyclopropyl)phenoxy)-2-methylpropanoic acid]
50	143	67	230	84	87						COC(c1ccc(OC(F)(F)F)cc1)C1CC1c1cc(F)c(OC(C)(C)C(=O)O)c(F)c1 (racemic) [Cpd 20-1, 2-(2,6-difluoro-4-(2-(methoxy(4-(trifluoromethoxy)phenyl)methyl)cyclopropyl)phenoxy)-2-methylpropanoic acid]
60	32		25		7						COC(c1ccc(OC(F)(F)F)cc1)C1CC1c1cc(C)c(OC(C)(C)C(=O)O)c(C)c1 (single isomer, unassigned) [Cpd 14-1, 2-(4-(2-(methoxy(4-(trifluoromethoxy)phenyl)methyl)cyclopropyl)-2,6-dimethylphenoxy)-2-methylpropanoic acid]
44	59	84	26	78	157						CCCCCCOc1ccccc1C(OC)C1CC1c1cc(C)c(OC(C)(C)C(=O)O)c(C)c1 (racemic) [Cpd 18-1, 2-(4-(2-((2-(hexyloxy)phenyl)(methoxy)methyl)cyclopropyl)-2,6-dimethylphenoxy)-2-methylpropanoic acid]
